# According to publication PMC6680932, “Structure–Antioxidant–Antiproliferative Activity Relationships of Natural C7 and C7–C8 Hydroxylated Flavones and Flavanones” (Antioxidants, 2019):
# Where two headings read alike, the source gives them in different places.
# How the values were obtained:
# [1] = FRAP (ferric ion reducing antioxidant power) assay; details: for TEAC FRAP: 10 min, 593 nm, mean ± SD
# Description: (§1) The antioxidant capacity of flavonoids was measured in three separate tests: ABTS, DPPH, and ferric ion reducing antioxidant power (FRAP) assays (ABTS, DPPH, and FRAP reagents from Sigma-Aldrich). All tested compounds were dissolved in DMSO. All determinations were performed in triplicate. Standard curves were prepared for all assays using different concentrations of Trolox (6-hydroxy-2,5,7,8-tetramethylchroman-2-carboxylic acid) (Sigma-Aldrich). Trolox is a water-soluble analogue of vitamin E with high antioxidant activity, commonly used as a control and a reference in studies of antioxidant activity. The results were expressed as the equivalent of μmol Trolox per μmol of the test compound. The absorbance was measured using a UV-2401 PC spectrophotometer (Shimadzu, Kyoto, Japan). Concentrations of the tested samples were in the range from 50 µg/mL to 10 mg/mL.
# The FRAP method is based on measuring the ability of antioxidants to reduce ferric 2,4,6-tris(2-pyridyl)-1,3,5-triazine [Fe(III)-TPTZ] in the blue colored ferrous form, which absorbs light at λ = 593 nm. The Fe(III)-TPTZ reagent was prepared as a mixture of acetate buffer (pH 3.6), 10 mM TPTZ in 40 mM HCl, and 20 mM FeCl3 in the ratio of 10:1:1 (v/v/v). The FRAP reagent was freshly prepared before each experiment. The samples (0.1 mL) were mixed in polystyrene cuvettes with 3 mL of ferric complex and 0.9 mL of distilled water. The absorbance was measured after 10 min at λ = 593 nm.
# [2] = system: HLMEC (lung microvascular endothelial cells); assay: Antiproliferative activity in vitro, SRB assay; assay type: cell-based, human; details: read-out: IC50 ± SD HLMEC
# Description: (§2) The antiproliferative studies were performed in vitro using human cancer cell lines—MV-4-11 (biphenotypic B myelomonocytic leukemia), MCF7 (breast carcinoma), LoVo (colon cancer), LoVo/DX (colon cancer doxorubicin-resistant), and DU 145 (prostate cancer)—and normal human cell lines—MCF 10A (breast cells) and HLMEC (lung microvascular endothelial cells). The cell lines MV-4-11, LoVo, DU 145, and MCF 10A were obtained from the American Type Culture Collection (Rockville, Maryland, USA), MCF7 from the European Collection of Authenticated Cell Cultures (ECACC, Salisbury, UK), LoVo/DX courtesy of Professor E. Borowski (Technical University of Gdansk, Poland), and HLMECs (which had been already immortalized by transfection with pSV3-neoplasmid containing large T-antigen gene) were the kind gift of Professor Claudine Kieda (Center for Molecular Biophysics, Orleans, France). The cell lines are being maintained in the Hirszfeld Institute of Immunology and Experimental Therapy, Polish Academy of Sciences (HIIET, PAS), Wroclaw, Poland. All cell lines were grown at 37 °C with 5% CO2 humidified atmosphere. The MV-4-11 cells were cultured in RPMI 1640 medium with GlutaMAX (Gibco, Scotland, UK), supplemented with 1 mM sodium pyruvate and 10% fetal bovine serum (both from Sigma-Aldrich, Poznan, Poland). The MCF7 cells were cultured in Eagle medium (HIIET, PAS, Wroclaw, Poland) supplemented with 2 mM L-glutamine, 10% fetal bovine serum, 1% nonessential amino acid solution, and 0.8 mg/L of insulin (all from Sigma-Aldrich, Poznan, Poland). The LoVo and LoVo/DX cells were cultured in a 1:1 (v/v) mixture of RPMI 1640 and Opti-MEM (both HIIET, PAS, Wroclaw, Poland), supplemented with 1 mM sodium pyruvate, 2 mM L-glutamine, and 5% fetal bovine serum (all from Sigma-Aldrich, Poznan, Poland). For LoVo/DX cells, additionally 10 µg/100 mL of doxorubicin (Accord Healthcare) was added to the medium. DU 145 cells were cultured in Eagle medium (HIIET, PAS, Wroclaw, Poland) supplemented with 1 mM sodium pyruvate, 4 mM L-glutamine, and 10% fetal bovine serum (all from Sigma-Aldrich, Poznan, Poland). The MCF 10A cells were cultured in the F-12 nutrient mixture (Gibco, Scotland, UK), supplemented with 5% horse serum (Gibco, Scotland, UK), 0.05 μg/mL of cholera toxin (Vibrio cholerae), 0.5 μg/mL of hydrocortisone, 10 μg/mL of insulin, and 20 ng/mL of human epidermal growth factor (all from Sigma-Aldrich, Poznan, Poland). The HLMEC cells were cultured in the RPMI 1640 medium (HIIET, PAS, Wroclaw, Poland) with the addition of 2 mM L-glutamine (Sigma-Aldrich, Poznan, Poland) and 10% fetal bovine serum (GE Healthcare). All culture media were supplemented with 100 units/mL penicillin (Polfa Tarchomin S.A., Warsaw, Poland) and 100 µg/mL streptomycin (Sigma-Aldrich, Poznan, Poland). Twenty-four hours before addition of the tested agents, the cells were plated in 96-well plates (Sarstedt, Germany) at a density of 1 × 10^4 (1 × 10^3 for HLMEC and 0.75 × 10^4 for MCF7) cells per well in 100 μL of culture medium.
# (§3) Tested compounds were dissolved in DMSO and then diluted in a 1:1 (v/v) mixture of RPMI 1640 (HIIET, PAS, Wroclaw, Poland) and Opti-MEM (Gibco, Scotland, UK) medium supplemented with 2 mM L-glutamine (Sigma-Aldrich, Poznan, Poland), 5% fetal bovine serum (GE Healthcare), 100 units/mL penicillin (Polfa Tarchomin S.A., Warsaw, Poland), and 100 µg/mL streptomycin (Sigma-Aldrich, Poznan, Poland). The antiproliferative effects of the flavonoids were examined after 72 h of exposure of the cultured cells to varying concentrations of the tested agents (from 0.1 to 100 μg/mL) using the MTT (for MV-4-11 cells) or SRB assay described below. Cisplatin (chemotherapy drug used to treat a number of cancers) was used as a positive control. The results are presented as an inhibitory concentration 50 (IC50), which is the concentration of the tested agent that inhibits proliferation of the cell population by 50%. IC50 values for each experiment were calculated separately. […]
# [3] = DPPH free radical scavenging activity assay; details: for increase of antioxidant activity in DPPH test, biotransformation product vs substrate: 8-hydroxylated product relative to the substrate from which it was obtained; for TEAC DPPH: 10 min, 517 nm, mean ± SD
# Description: as §1
# The DPPH (2,2-diphenyl-1-picrylhydrazyl) radical scavenging activity of samples was determined according to the method described by Yen and Chen with some modifications. Samples (0.1 mL) of known concentration were mixed in polystyrene cuvettes with 2 mL of 0.04 mM DPPH in ethanol and 0.4 mL of ethanol. The absorbance was measured after 10 min at λ = 517 nm. The DPPH reagent was freshly prepared before each experiment.
# [4] = ABTS radical cation decolorization assay; details: for increase of antioxidant activity in ABTS test, biotransformation product vs substrate: 8-hydroxylated product relative to the substrate from which it was obtained; for TEAC ABTS: 6 min incubation, 734 nm, mean ± SD
# Description: as §1
# The radical cation scavenging capacity of the tested compounds was examined against ABTS^+ (2,2’-azino-bis(3-ethylbenzo-thiazoline-6-sulfonic acid) according to the procedure described by Re et al. with some modifications. The test sample (30 μL) of known concentration was mixed in a polystyrene cuvette with 3 mL of ABTS solution with a measured absorption of 0.700 at a wavelength of λ = 734 nm. After 6 min of incubation, the absorption of samples was recorded. The ABTS reagent was freshly prepared before each experiment.
# [5] = system: MV-4-11 (biphenotypic B myelomonocytic leukemia); assay: Antiproliferative activity in vitro, MTT assay; assay type: cell-based, human; details: read-out: IC50 ± SD MV-4-11
# [6] = system: LoVo/DX (colon cancer doxorubicin-resistant); assay: Antiproliferative activity in vitro, SRB assay; assay type: cell-based, human; details: 72 h exposure, read-out: IC50 ± SD LoVo/DX
# MCF7 (breast carcinoma) = assay: Antiproliferative activity in vitro, SRB assay; assay type: cell-based, human; details: read-out: IC50 ± SD MCF7
# Description: as §2, §3
# LoVo (colon cancer) = assay: Antiproliferative activity in vitro, SRB assay; assay type: cell-based, human; details: read-out: IC50 ± SD LoVo
# Description: as §2, §3
# MCF 10A (breast cells) = assay: Antiproliferative activity in vitro, SRB assay; assay type: cell-based, human; details: read-out: IC50 ± SD MCF 10A
# Description: as §2, §3
# DU 145 (prostate cancer) = assay: Antiproliferative activity in vitro, SRB assay; assay type: cell-based, human; details: read-out: IC50 ± SD DU 145
# [7] = Homo sapiens, Endothelial cell, 72 h exposure, SRB, normal cell line
# [8] = Homo sapiens, MV4-11, 72 h exposure
# [9] = Homo sapiens, MCF7, 72 h exposure, SRB
# [10] = Homo sapiens, LoVo, 72 h, 72 h exposure, SRB
# [11] = 72 h exposure, SRB, normal cell line
"IC50 ([6]; Homo sapiens, LoVo/DX)",IC50 (MCF7 (breast carcinoma); [9]),IC50 (LoVo (colon cancer); [10]),SMILES,TEAC FRAP [1],"IC50 [2, 7]","increase of antioxidant activity in DPPH test, biotransformation product vs substrate [3]",TEAC DPPH [3],"increase of antioxidant activity in ABTS test, biotransformation product vs substrate [4]",TEAC ABTS [4],also measured
–,–,–,"O=c1cc(-c2ccccc2)oc2c(O)c(O)cc(O)c12 [Compound 9, 8-hydroxychrysin]",8.900 ± 0.582 µmol trolox per µmol of tested,120 ± 2.24 µM,about 2000 fold,8.038 ± 0.061 µmol trolox per µmol of tested,about 170 fold,14.173 ± 1.591 µmol trolox per µmol of tested,–
13.4 ± 3.02 µM,123 ± 37.4 µM,15 ± 2.2 µM,"COc1ccc(-c2cc(=O)c3c(O)cc(O)cc3o2)cc1O [Compound 4, diosmetin]",–,14.4 ± 1.95 µM,–,0.008 ± 0.001 µmol trolox per µmol of tested,–,1.712 ± 0.041 µmol trolox per µmol of tested,"IC50 [5, 8]: 8.39 ± 3.53 µM"
–,–,–,"O=C1CC(c2ccccc2)Oc2c(O)c(O)cc(O)c21 (centres unmarked) [Compound 13, 8-hydroxypinocembrin]",12.861 ± 0.313 µmol trolox per µmol of tested,148 ± 13.4 µM,about 1800 fold,9.164 ± 0.097 µmol trolox per µmol of tested,about 130 fold,20.763 ± 0.939 µmol trolox per µmol of tested,–
13 ± 1.29 µM,75 ± 26.1 µM,28 ± 8.17 µM,"O=c1cc(-c2ccccc2)oc2cc(O)cc(O)c12 [Compound 1, Chrysin]",–,22.9 ± 2.02 µM,–,0.004 ± 0.001 µmol trolox per µmol of tested,–,0.084 ± 0.011 µmol trolox per µmol of tested,"IC50 [5, 8]: 15.1 ± 1.99 µM; IC50 (MCF 10A (breast cells); Homo sapiens, MCF-10A, 72 h exposure, SRB, normal cell line): 27 ± 12 µM"
–,–,238 ± 35.4 µM,"O=c1cc(-c2ccc(O)c(O)c2)oc2c(O)c(O)cc(O)c12 [Compound 11, 8-hydroxyluteolin]",36.895 ± 0.432 µmol trolox per µmol of tested,106 ± 1.72 µM,–,13.208 ± 0.080 µmol trolox per µmol of tested,more than twice as active,34.450 ± 1.016 µmol trolox per µmol of tested,–
–,135 ± 20.3 µM,–,"COc1ccc(C2CC(=O)c3c(O)cc(O)c(O)c3O2)cc1O (centres unmarked) [Compound 18, 8-hydroxyhesperetin]",25.260 ± 0.909 µmol trolox per µmol of tested,97.1 ± 5.15 µM,144 fold,14.150 ± 0.229 µmol trolox per µmol of tested,more than twice as active,31.187 ± 1.353 µmol trolox per µmol of tested,"increase of antioxidant activity in FRAP test, biotransformation product vs substrate ([1]; 8-hydroxylated product relative to the substrate from which it was obtained): 6 fold"
–,–,224 ± 15.3 µM,"COc1ccc(-c2cc(=O)c3c(O)cc(O)c(O)c3o2)cc1O [Compound 12, 8-Hydroxydiosmetin]",11.340 ± 0.203 µmol trolox per µmol of tested,108 ± 15.4 µM,–,8.496 ± 0.040 µmol trolox per µmol of tested,–,13.405 ± 0.826 µmol trolox per µmol of tested,–
–,–,–,"N.N.[Cl][Pt][Cl] [Cisplatin, reference compound]",–,–,–,–,–,–,"IC50 (DU 145 (prostate cancer); 72 h exposure, SRB): 1.47 ± 0.12 µM; IC50 ([5]; 72 h exposure): 1.6 ± 0.33 µM; IC50 [6]: 3.23 ± 0.77 µM; IC50 (MCF 10A (breast cells); [11]): 10.6 ± 1.17 µM; IC50 [2, 11]: 1.07 ± 0.05 µM; IC50 (MCF7 (breast carcinoma); 72 h exposure, SRB): 7.5 ± 1.32 µM; IC50 (LoVo (colon cancer); 72 h exposure, SRB): 5.87 ± 1.72 µM"

SMILES,"IC50 ([6]; Homo sapiens, LoVo/DX)",IC50 (MCF7 (breast carcinoma); [9]),IC50 (LoVo (colon cancer); [10]),TEAC FRAP [1],"IC50 [2, 7]","increase of antioxidant activity in DPPH test, biotransformation product vs substrate [3]",TEAC DPPH [3],"increase of antioxidant activity in ABTS test, biotransformation product vs substrate [4]",TEAC ABTS [4],also measured
"O=C1C[C@@H](c2ccc(O)c(O)c2)Oc2cc(O)cc(O)c21 [Compound 7, eriodictyol]",99.2 ± 12.5 µM,–,–,10.619 ± 0.319 µmol trolox per µmol of tested,–,–,9.582 ± 0.315 µmol trolox per µmol of tested,–,13.988 ± 0.251 µmol trolox per µmol of tested,"IC50 (DU 145 (prostate cancer); Homo sapiens, DU-145, 72 h): 121 ± 18.4 µM; IC50 (MCF 10A (breast cells); Homo sapiens, MCF-10A, 72 h): 147 ± 36.2 µM; IC50 ([2]; Homo sapiens, Endothelial cell, 72 h): 25.8 ± 6.71 µM; IC50 (MCF7 (breast carcinoma); Homo sapiens, MCF7, 72 h): 151 ± 9.31 µM; IC50 (LoVo (colon cancer); Homo sapiens, LoVo, 72 h): 101 ± 10.9 µM"
